Experimental data taken from patent US10899738B2 (THE REGENTS OF THE UNIVERSITY OF MICHIGAN, priority 2016, dated 2021).

Biological target: menin protein (Homo sapiens (Human), UniProt O00255)
Assay: biochemical
Type: binding
Conditions: FP competitive binding; menin protein 4 nM, FAM-MM2 probe 2 nM
Method: A fluorescence polarization (FP) competitive binding assay was used to determine the binding affinities of representative menin inhibitors. A FAM labeled fluorescent probe was designed and synthesized based on a MLL1 peptide (FAM-MM2). Equilibrium dissociation constant (Kd) value of FAM-MM2 to menin protein was determined from protein saturation experiments by monitoring the total fluorescence polarization of mixtures composed with the fluorescent probe at a fixed concentration and the protein with increasing concentrations up to full saturation. Serial dilutions of the protein were mixed with FAM-MM2 to a final volume of 200 μl in the assay buffer (PBS with 0.02% Bovine γ-Globulin and 4% DMSO. 0.01% Triton X-100 was added right before assays). Final FAM-MM2 concentration was 2 nM. Plates were incubated at room temperature for 30 minutes with gentle shaking to assure equilibrium.
The IC50, see Table 3, and Ki values of representative Compounds of the Disclosure were determined in a competitive binding experiment. Mixtures of 5 μl of the tested compounds in DMSO and 195 μl of preincubated protein/probe complex solution in the assay buffer were added into assay plates which were incubated at room temperature for 30 minutes with gentle shaking. Final concentration of the menin protein was 4 nM, and final probe concentration is 2 nM. […] FP values were measured as described above. IC50 values were determined by nonlinear regression fitting of the competition curves.

Chain of menin protein (O00255 whole entry): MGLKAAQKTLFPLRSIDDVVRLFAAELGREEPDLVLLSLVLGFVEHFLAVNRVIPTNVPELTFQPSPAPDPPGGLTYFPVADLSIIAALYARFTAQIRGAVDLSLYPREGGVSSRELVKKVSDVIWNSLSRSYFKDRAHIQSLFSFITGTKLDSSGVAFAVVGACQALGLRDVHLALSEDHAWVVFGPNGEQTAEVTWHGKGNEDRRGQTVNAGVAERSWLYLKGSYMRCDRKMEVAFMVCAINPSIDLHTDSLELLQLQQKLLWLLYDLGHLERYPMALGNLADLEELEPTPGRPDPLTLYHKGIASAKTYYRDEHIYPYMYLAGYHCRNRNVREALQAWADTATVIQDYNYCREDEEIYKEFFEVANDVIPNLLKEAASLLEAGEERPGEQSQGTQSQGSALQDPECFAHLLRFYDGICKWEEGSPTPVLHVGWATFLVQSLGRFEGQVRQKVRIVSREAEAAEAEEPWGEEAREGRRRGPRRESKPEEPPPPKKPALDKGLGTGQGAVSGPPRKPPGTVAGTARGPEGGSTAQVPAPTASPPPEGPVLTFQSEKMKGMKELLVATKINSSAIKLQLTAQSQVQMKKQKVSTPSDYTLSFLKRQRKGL

| Menin Binding Affinity IC50 (μM) | SMILES |
| --- | --- |
| No inhibition | CC(=O)O[C@@H]1CCC[C@H]1C(C#N)(c1ccccc1)C1CCN(CC#Cc2ccc(C#N)cc2)CC1 (mixture of isomers) [compound 387, rac-(1R,2S)-2-(cyano(1-(3-(4-cyanophenyl)prop-2-yn-1-yl)piperidin-4-yl)(phenyl)methyl)cyclopentyl acetate] |

Same assay, conditions: FP competitive binding; menin protein 4 nM, FAM-MM2 probe 2 nM; read-out: Menin Binding Affinity IC50

| SMILES | IC50 [µM] |
| --- | --- |
| CC(=O)N1CCCC(C(C#N)(c2ccccc2)C2CCN(CCCOc3ccc(C#N)cc3)CC2)C1 (stereo not drawn) [compound 307, 4-(3-(4-((1-acetylpiperidin-3-yl)(cyano)(phenyl)methyl)piperidin-1-yl)propoxy)benzontrile] | 30.6 |
| CNC(=O)O[C@@H]1CCC[C@H]1C(Cn1ccnc1)(c1ccccc1)C1CCN(CC2CN(c3ccc(C#N)cc3)C2)CC1 (mixture of isomers) [compound 365, rac-(1R,2S)-2-(1-(1-((1-(4-cyanophenyl)azetidin-3-yl)methyl)piperidin-4-yl)-2-(1H-imidazol-1-yl)-1-phenylethyl)cyclopentyl methylcarbamate] | 0.281 |
| N#CC(c1ccccc1)(C1CCCC1)C1CCN(CC2CN(c3ccc(S(=O)(=O)c4ccncc4)cc3)C2)CC1 (stereo not drawn) [compound 190, 2-cyclopentyl-2-phenyl-2-(1-((1-(4-(pyridin-4-ylsulfonyl)phenyl)azetidin-3-yl)methyl)piperidin-4-yl)acetonitrile] | 2 |
| CNC(=O)O[C@H]1CCC[C@@H]1C(Cn1ccnc1C)(c1cccc(F)c1)C1CCN(CC2CN(c3ccc(Cl)cc3)C2)CC1 (mixture of isomers) [compound 413, rac-(1S,2R)-2-(1-(1-((1-(4-chlorophenyl)azetidin-3-yl)methyl)piperidin-4-yl)-1-(3-fluorophenyl)-2-(2-methyl-1H-imidazol-1-yl)ethyl)cyclopentyl methylcarbamate] | 0.006 |
| Cc1nccn1CC(c1ccccc1)(C1CCCC1)C1CCN(CC2CN(c3ccc(S(=O)(=O)C4CC4)cc3)C2)CC1 (stereo not drawn) [compound 42, 4-(1-cyclopentyl-2-(2-methyl-1H-imidazol-1-yl)-1-phenylethyl)-1-((1-(4-(cyclopropylsulfonyl)phenyl)azetidin-3-yl)methyl)piperidine] | 0.029 |
| O=C(Cc1ccc(S(=O)(=O)C2CC2)cc1)N1CCc2cc(C3(C4CCCC4)NCCc4ccccc43)ccc2C1 (stereo not drawn) [compound 100, 1-(1-cyclopentyl-1,2,3,3′,4,4′-hexahydro-[1,6′-biisoquinolin]-2′-(1′H)-yl)-2-(4-(cyclopropylsulfonyl)phenyl) ethan-1-one] | 4.7 |
| CNC(=O)O[C@@H]1CCC[C@H]1C(C#N)(c1ccccc1)C1CCN(CC2CN(c3ccc(C(=O)OC)cc3)C2)CC1 (mixture of isomers) [compound 374, methyl rac-4-(3-((4-(cyano((1S,2R)-2-((methylcarbamoyl)oxy)cyclopentyl)(phenyl)methyl)piperidin-1-yl)methyl)azetidin-1-yl)benzoate] | 4.7 |
| CC(=O)O[C@@H]1CCC[C@H]1C(C#N)(c1ccccc1)C1CCN(CC2CN(c3ccc(S(=O)(=O)c4ccncc4)cc3)C2)CC1 (mixture of isomers) [compound 186, rac-(1R,2S)-2-(cyano(phenyl)(1-((1-(4-(pyridin-4-ylsulfonyl)phenyl)azetidin-3-yl)methyl)piperidin-4-yl)methyl)cyclopentyl acetate] | 1 |
| CC(=O)N[C@H]1CCC[C@@H]1C(C#N)(c1ccccc1)C1CCN(CC2CN(c3ccc(C#N)cc3)C2)CC1 (mixture of isomers) [compound 382, rac-N-((1S,2R)-2-(cyano(1-((1-(4-cyanophenyl)azetidin-3-yl)methyl)piperidin-4-yl)(phenyl)methyl)cyclopentyl)acetamide] | 0.102 |
| CC(=O)O[C@H]1CCC[C@@H]1C1(C2CCN(CC3CN(c4ccc(S(=O)(=O)c5ccnc(C)c5)cc4)C3)CC2)CN(C)Cc2ccccc21 (mixture of isomers) [compound 202, rac-(1R,2S)-2-(2-methyl-4-(1-((1-(4-((2-methylpyridin-4-yl)sulfonyl)phenyl)azetidin-3-yl)methyl)piperidin-4-yl)-1,2,3,4-tetrahydroisoquinolin-4-yl)cyclopentyl acetate] | 0.113 |
| CNC(=O)O[C@@H]1CCC[C@H]1C(C#N)(c1ccccc1)C1CCN(CC2CN(c3ccc(C#N)cc3)C2)CC1 (mixture of isomers) [compound 364, rac-(1R,2S)-2-(cyano(1-((1-(4-cyanophenyl)azetidin-3-yl)methyl)piperidin-4-yl)(phenyl)methyl)cyclopentyl methylcarbamate] | 3.1 |
| N#Cc1cc2cc(CN3CCC(C4(C5CCCC5)NCCc5ccccc54)CC3)ccc2[nH]1 (stereo not drawn) [compound 114, 5-((4-(1-cyclopentyl-1,2,3,4-tetrahydroisoquinolin-1-yl)piperidin-1-yl)methyl)-1H-indol-2-carbonitrile] | 32.6 |
| CNC(=O)O[C@@H]1CCC[C@H]1C(C#N)(c1ccccc1)C1CCN(CC2CN(c3ccc(S(=O)(=O)C4CC4)cc3)C2)CC1 (mixture of isomers) [compound 227, rac-(1R,2S)-2-(cyano(1-((1-(4-(cyclopropylsulfonyl)phenyl)azetidin-3-yl)methyl)piperidin-4-yl)(phenyl)methyl)cyclopentyl methylcarbamate] | 0.498 |
| N#Cc1ccc(OCCCN2CC=C(C3(C4CCCC4)NCCc4ccccc43)CC2)cc1 (stereo not drawn) [compound 79, 4-(3-(4-(1-cyclopentyl-1,2,3,4-tetrahydroisoquinolin-1-yl)-3,6-dihydropyridin-1(2H)-yl)propoxy)benzonitrile] | 0.7 |
| N#Cc1ccc(N2CC(CN3CCC(C4(C5CCCC5)NCCc5ccccc54)CC3)C2)c(Cl)c1 (stereo not drawn) [compound 139, 3-chloro-4-(3-((4-(1-cyclopentyl-1,2,3,4-tetrahydroisoquinolin-1-yl)piperidin-1-yl)methyl)azetidin-1-yl)benzonitrile] | 0.073 |
| N#Cc1cc2cc(CCN3CCC(C4(C5CCCC5)NCCc5ccccc54)CC3)ccc2[nH]1 (stereo not drawn) [compound 66, 5-(2-(4-(1-cyclopentyl-1,2,3,4-tetrahydroisoquinolin-1-yl)piperidin-1-yl)ethyl)-1H-indole-2-carbonitrile] | 1.1 |
| N#Cc1cc2cc(CN3CCC(CC4(C5CCCC5)NCCc5ccccc54)CC3)ccc2[nH]1 (stereo not drawn) [compound 112, 5-((4-((1-cyclopentyl-1,2,3,4-tetrahydroisoquinolin-1-yl)methyl)piperidin-1-yl)methyl)-1H-indole-2-carbonitrile] | 41.6 |
| CS(=O)(=O)c1ccc(OCCCN2CCC(C3(C4CCCCC4)NCCc4ccccc43)CC2)cc1 (stereo not drawn) [compound 295, 1-cyclohexyl-1-(1-(3-(4-(methylsulfonyl)phenoxy)propyl)piperidin-4-yl)-1,2,3,4-tetrahydroisoquinoline] | 1.9 |
| CNC(=O)O[C@@H]1CCC[C@H]1C(C#N)(c1ccccc1)C1CCN(C2CCN(c3ccc(S(=O)(=O)c4ccccc4)cc3)CC2)CC1 (mixture of isomers) [compound 235, rac-(1R,2S)-2-(cyano(phenyl)(1′-(4-(phenylsulfonyl)phenyl)-[1,4′-bipiperidin]-4-yl)methyl)cyclopentyl methylcarbamate] | 6.2 |
| N#Cc1cc2ccc(C(=O)N3CCC(CC4(C5CCCC5)NCCc5ccccc54)CC3)cc2[nH]1 (stereo not drawn) [compound 118, 6-(4-((1-cyclopentyl-1,2,3,4-tetrahydroisoquinolin-1-yl)methyl)piperidine-1-carbonyl)-1H-indole-2-carbonitrile] | 21.8 |
| CNC(=O)C[C@@H]1CCC[C@H]1C(C#N)(c1ccccc1)C1CCN(CC2CN(c3ccc(S(=O)(=O)c4ccncc4)cc3)C2)CC1 (mixture of isomers) [compound 339, rac-2-((1S,2R)-2-(cyano(phenyl)(1-((1-(4-(pyridin-4-ylsulfonyl)phenyl)azetidin-3-yl)methyl)piperidin-4-yl)methyl)cyclopentyl)-N-methylacetamide] | 5.2 |
| N#Cc1ccc(OCCCN2CCC(C(CN)(c3ccccc3)C3CCCC3)CC2)cc1 (stereo not drawn) [compound 39, 4-(3-(4-(2-amino-1-cyclopentyl-1-phenylethyl)piperidin-1-yl)propoxy)benzonitrile] | 0.124 |
| CS(=O)(=O)N[C@H]1CCC[C@@H]1C(C#N)(c1ccccc1)C1CCN(CC2CN(c3ccc(S(=O)(=O)c4ccncc4)cc3)C2)CC1 (mixture of isomers) [compound 267, rac-N-((1S,2R)-2-(cyano(phenyl)(1-((1-(4-(pyridin-4-ylsulfony)phenyl)azetidin-3-yl)methyl)piperidin-4-yl)methyl)cyclopentyl) methanesulfonamide] | 0.437 |
| CNC(=O)[C@H]1CCC[C@@H]1C(C#N)(c1ccccc1)C1CCN(CC2CN(c3ccc(S(=O)(=O)C4CC4)cc3)C2)CC1 (mixture of isomers) [compound 334, rac-(1S,2S)-2-(cyano(1-((1-(4-(cyclopropylsulfonyl)phenyl)azetidin-3-yl)methyl)piperidin-4-yl)(phenyl)methyl)-N-methylcyclopentane-1-carboxylate] | 3.2 |
| CCCC(C)C1(C2CCN(CCCOc3ccc(C#N)cc3)CC2)NCCc2ccccc21 (stereo not drawn) [compound 245, 4-(3-(4-(1-(pentan-2-yl)-1,2,3,4-tetrahydroisoquinolin-1-yl)piperidin-1-yl)propoxy)benzonitrile] | 3.3 |
| CNC(=O)O[C@H]1CCC[C@@H]1C(C#N)(c1ccccc1)C1CCN(CC2CN(c3ccc([N+](=O)[O-])cc3)C2)CC1 (mixture of isomers) [compound 385, rac-(1S,2R)-2-(cyano(1-((1-(4-nitrophenyl)azetidin-3-yl)methyl)piperidin-4-yl)(phenyl)methyl)cyclopentyl methylcarbamate] | 0.013 |
